The source of these data is PubChem BioAssay (NCI).

Test systems include LOX IMVI melanoma; K-562 leukemia; MALME-3M melanoma; KM12 colon; UACC-62 melanoma; HOP-62 NSCLC; OVCAR-4 ovarian; ACHN renal; RPMI-8226 leukemia; OVCAR-5 ovarian.
What all share (experiment): inhibition of tumour cell growth, NCI panel, 48 h

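Step 1: Grow cells in 96-well plates. Step 2: Expose to compound for 48 hours at 5 concentrations. Step 3: Interpolate endpoints linearly; if unreached, use highest concentration. The concentration for 50% growth inhibition is given as GI50. TGI is the concentration that stops growth completely.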

Regarding `COc1cccc2c1nc1cccc(OC)c1[n+]2[O-]`, the GI50 in the experiment with LOX IMVI melanoma was 4.23 µM; with K-562 leukemia, 11.5 µM; in the experiment with MALME-3M melanoma, 12.8 µM; in the experiment with KM12 colon it was 11.6 µM; in the experiment with UACC-62 melanoma it was 3.35 µM; with HOP-62 NSCLC it was 4.14 µM. The GI50 in the experiment with OVCAR-4 ovarian is 4.16 µM; in the experiment on ACHN renal it was 2.2 µM; in the experiment on RPMI-8226 leukemia, 7.69 µM; in the experiment with OVCAR-5 ovarian, 27.8 µM. Also, the TGI in the experiment on LOX IMVI melanoma was determined as 18.4 µM; in the experiment with K-562 leukemia it was 26.6 µM; with MALME-3M melanoma, 30.3 µM; in the experiment with KM12 colon, 28.4 µM; with UACC-62 melanoma, 14.1 µM; with HOP-62 NSCLC, 17.8 µM. Also, the TGI with OVCAR-4 ovarian turned out to be 20.9 µM; in the experiment on ACHN renal, 9.96 µM; in the experiment with RPMI-8226 leukemia it was 31.4 µM; in the experiment on OVCAR-5 ovarian, 93 µM.

On to `O=C1c2ccc3c4c(ccc(c24)C(=O)N1CCCNCc1ccccc1)C(=O)N(CCCNCc1ccccc1)C3=O`, for which the GI50 in the experiment on LOX IMVI melanoma is 0.135 µM; in the experiment on K-562 leukemia, 0.136 µM; in the experiment on MALME-3M melanoma it was 0.152 µM; in the experiment on KM12 colon it was 0.108 µM; in the experiment on UACC-62 melanoma, 0.18 µM; in the experiment on HOP-62 NSCLC, 0.232 µM. Also, the GI50 in the experiment with OVCAR-4 ovarian is 0.119 µM; in the experiment on ACHN renal it was 0.135 µM; in the experiment on RPMI-8226 leukemia, 0.265 µM; with OVCAR-5 ovarian, 0.233 µM. For the same compound, the TGI worked out at 0.363 µM with LOX IMVI melanoma; 0.778 µM in the experiment with K-562 leukemia; 0.298 µM with MALME-3M melanoma; 0.288 µM in the experiment on KM12 colon; 0.333 µM in the experiment with UACC-62 melanoma; 0.772 µM in the experiment with HOP-62 NSCLC. For the same compound, the TGI in the experiment on OVCAR-4 ovarian turned out to be 0.248 µM; with ACHN renal, 0.722 µM; in the experiment on RPMI-8226 leukemia, 0.939 µM; with OVCAR-5 ovarian it was 0.648 µM.

`CCCCCCCCCCCCOC1C(CNCC2OC3OC(C)(C)OC3C2NC(=O)Nc2ccc(C(F)(F)F)cc2)OC2OC(C)(C)OC21` (stereo not given): the GI50 in the experiment with LOX IMVI melanoma is 2.89 µM; in the experiment on K-562 leukemia, 0.0327 µM; with MALME-3M melanoma, 3.39 µM; in the experiment on KM12 colon, 3.7 µM; with UACC-62 melanoma, 8.63 µM; in the experiment with HOP-62 NSCLC, 8.1 µM. Besides, the GI50 in the experiment with OVCAR-4 ovarian was 5.43 µM; with ACHN renal, 7.05 µM; in the experiment on RPMI-8226 leukemia, 7.06 µM; in the experiment with OVCAR-5 ovarian it was 9.11 µM. The TGI with LOX IMVI melanoma is 5.65 µM; in the experiment with K-562 leukemia, 2.62 µM; in the experiment on MALME-3M melanoma, 13.7 µM; with KM12 colon, 8.45 µM; in the experiment with UACC-62 melanoma, 15.9 µM; with HOP-62 NSCLC it was 15.1 µM. The TGI in the experiment on OVCAR-4 ovarian turned out to be 13.2 µM; with ACHN renal, 14 µM; with RPMI-8226 leukemia, 18.7 µM; in the experiment on OVCAR-5 ovarian it was 17 µM.

As to `Cc1ccc(/C=N/NS(=O)(=O)c2ccccc2)cc1`, the TGI in the experiment with LOX IMVI melanoma, with K-562 leukemia, in the experiment on MALME-3M melanoma, in the experiment with KM12 colon, with UACC-62 melanoma and in the experiment on HOP-62 NSCLC was more than 100 µM throughout. In addition, the TGI in the experiment on OVCAR-4 ovarian, with ACHN renal, with RPMI-8226 leukemia and in the experiment on OVCAR-5 ovarian was more than 100 µM throughout.

Take `NC1=NN(c2ccccc2)C(=O)C1/C(=N\NC(=O)c1cc2ccccc2cc1O)C(=O)Nc1nc([N+](=O)[O-])cs1` (stereo not given): the TGI is 55.4 µM in the experiment on LOX IMVI melanoma; 42.2 µM in the experiment on K-562 leukemia; more than 100 µM with MALME-3M melanoma; more than 80 µM with KM12 colon; 56.6 µM with UACC-62 melanoma; more than 100 µM with HOP-62 NSCLC. For the same compound, the TGI in the experiment with OVCAR-4 ovarian is more than 100 µM; in the experiment with ACHN renal, more than 100 µM; in the experiment with RPMI-8226 leukemia, 87.8 µM; in the experiment with OVCAR-5 ovarian it was more than 100 µM.

For `Cc1ccc(Nc2[nH]c(C(=O)c3ccc(Cl)cc3)c(N)c2C(=S)Nc2ccccc2)nc1`, the GI50 in the experiment with LOX IMVI melanoma was 23 µM; in the experiment with K-562 leukemia it was 45.4 µM; in the experiment with MALME-3M melanoma, 13.7 µM; in the experiment on KM12 colon, 16.8 µM; in the experiment on UACC-62 melanoma, 15.3 µM; with HOP-62 NSCLC, 35.9 µM. Besides, the GI50 in the experiment on OVCAR-4 ovarian was 63.6 µM; in the experiment with ACHN renal, 31.9 µM; in the experiment with RPMI-8226 leukemia, 25.5 µM; in the experiment on OVCAR-5 ovarian, 33.1 µM. Moreover, the TGI with LOX IMVI melanoma is 53.1 µM; in the experiment with K-562 leukemia, more than 100 µM; with MALME-3M melanoma, 42 µM; with KM12 colon, 54.9 µM; in the experiment with UACC-62 melanoma it was 41 µM; with HOP-62 NSCLC it was more than 100 µM. Further, the TGI in the experiment on OVCAR-4 ovarian, in the experiment with ACHN renal, with RPMI-8226 leukemia and in the experiment on OVCAR-5 ovarian was more than 100 µM in each case.

In the case of `COc1cc(-c2nc3ccccc3[nH]2)ccc1OCC(=O)N=Nc1c(O)[nH]c2ccc(Cl)cc12`, the GI50 in the experiment on LOX IMVI melanoma is 0.337 µM; in the experiment on K-562 leukemia it was 0.454 µM; in the experiment with MALME-3M melanoma, 1.53 µM; in the experiment with KM12 colon, 1.41 µM; in the experiment with UACC-62 melanoma, 1.72 µM; in the experiment with HOP-62 NSCLC, 1.79 µM. In addition, the GI50 was 2.02 µM in the experiment with OVCAR-4 ovarian, 4.75 µM in the experiment on ACHN renal, 1.12 µM in the experiment with RPMI-8226 leukemia and 1.97 µM in the experiment with OVCAR-5 ovarian. Moreover, the TGI was found to be 1.24 µM in the experiment on LOX IMVI melanoma; 3.1 µM in the experiment on K-562 leukemia; 2.93 µM in the experiment on MALME-3M melanoma; 3.24 µM in the experiment on KM12 colon; 3.18 µM with UACC-62 melanoma; 3.44 µM in the experiment on HOP-62 NSCLC. Moreover, the TGI is 3.54 µM in the experiment on OVCAR-4 ovarian, more than 100 µM in the experiment with ACHN renal, 3.76 µM in the experiment with RPMI-8226 leukemia and 4.82 µM in the experiment with OVCAR-5 ovarian.

Take `CN(C)CCN1C(=O)c2cccc3c(N)ccc(c23)C1=O`: the GI50 with LOX IMVI melanoma is 8.44 µM; in the experiment on K-562 leukemia it was 6.76 µM; in the experiment with MALME-3M melanoma it was 7.74 µM; in the experiment on KM12 colon it was 14.2 µM; with UACC-62 melanoma, 7.39 µM; in the experiment with HOP-62 NSCLC it was 22.9 µM. Further, the GI50 in the experiment with OVCAR-4 ovarian was 14.1 µM; in the experiment with ACHN renal, 7.9 µM; in the experiment with RPMI-8226 leukemia it was 7.71 µM; in the experiment on OVCAR-5 ovarian it was 15.1 µM. In addition, the TGI is more than 25 µM in the experiment on LOX IMVI melanoma; 20.4 µM with K-562 leukemia; more than 25 µM in the experiment with MALME-3M melanoma; more than 25 µM with KM12 colon; more than 25 µM in the experiment on UACC-62 melanoma; more than 25 µM in the experiment with HOP-62 NSCLC. Also, the TGI in the experiment with OVCAR-4 ovarian, in the experiment with ACHN renal, in the experiment with RPMI-8226 leukemia and with OVCAR-5 ovarian was more than 25 µM each time.

On to `c1ccc(CCCNc2nnnc3ccccc23)cc1`, for which the TGI in the experiment on LOX IMVI melanoma, in the experiment on K-562 leukemia, with MALME-3M melanoma, in the experiment with KM12 colon, in the experiment with UACC-62 melanoma and with HOP-62 NSCLC was more than 100 µM each time. Besides, the TGI with OVCAR-4 ovarian, with ACHN renal, in the experiment with RPMI-8226 leukemia and in the experiment on OVCAR-5 ovarian was more than 100 µM throughout.

`COc1nc2c(cc1S(=O)(=O)c1ccccc1)CCc1c-2cnn1Cc1ccccc1`: the GI50 with LOX IMVI melanoma is more than 100 µM; in the experiment with K-562 leukemia, 3.02 µM; in the experiment on MALME-3M melanoma, 24.4 µM; in the experiment with KM12 colon, 3.73 µM; in the experiment with UACC-62 melanoma it was 7.52 µM; in the experiment with HOP-62 NSCLC, 17.7 µM. Also, the GI50 in the experiment with OVCAR-4 ovarian was 5.22 µM; in the experiment with ACHN renal it was 42.6 µM; with RPMI-8226 leukemia, 3.49 µM; with OVCAR-5 ovarian it was more than 100 µM. The TGI in the experiment with LOX IMVI melanoma, with K-562 leukemia, in the experiment with MALME-3M melanoma, in the experiment with KM12 colon, in the experiment on UACC-62 melanoma and with HOP-62 NSCLC was more than 100 µM each time. The TGI with OVCAR-4 ovarian, in the experiment with ACHN renal, with RPMI-8226 leukemia and in the experiment with OVCAR-5 ovarian was more than 100 µM each time.

For `O=[N+]([O-])c1cccc(/C=C/c2ccccn2)c1`, the GI50 in the experiment on LOX IMVI melanoma was 10.6 µM; in the experiment with K-562 leukemia, 41.2 µM; with MALME-3M melanoma it was 37.5 µM; in the experiment on KM12 colon, 24.2 µM; in the experiment with UACC-62 melanoma, 60 µM; with HOP-62 NSCLC, 40.7 µM. The GI50 in the experiment on OVCAR-4 ovarian is 18.8 µM; with ACHN renal it was 5.81 µM; with RPMI-8226 leukemia it was 40.2 µM; in the experiment on OVCAR-5 ovarian, 49.7 µM. Further, the TGI with LOX IMVI melanoma, in the experiment with K-562 leukemia, in the experiment on MALME-3M melanoma, with KM12 colon, in the experiment on UACC-62 melanoma and in the experiment on HOP-62 NSCLC was more than 100 µM throughout. For the same compound, the TGI with OVCAR-4 ovarian, in the experiment on ACHN renal, in the experiment with RPMI-8226 leukemia and in the experiment with OVCAR-5 ovarian was more than 100 µM each time.

Consider `O=C(C[C@@]1(O)C(=O)Nc2c(Cl)ccc(Cl)c21)c1ccc(C2CC2)cc1`, for which the GI50 in the experiment on LOX IMVI melanoma is 0.541 µM; with K-562 leukemia it was 0.05 µM; in the experiment on MALME-3M melanoma, 0.542 µM; with KM12 colon, 0.318 µM; with UACC-62 melanoma, 0.378 µM; in the experiment on HOP-62 NSCLC it was 0.516 µM. In addition, the GI50 in the experiment on OVCAR-4 ovarian is 6.01 µM; in the experiment with ACHN renal, 0.726 µM; with RPMI-8226 leukemia, 0.433 µM; in the experiment with OVCAR-5 ovarian it was 1.17 µM. Moreover, the TGI with LOX IMVI melanoma is 13.9 µM; with K-562 leukemia it was more than 51.7 µM; in the experiment on MALME-3M melanoma, 23.9 µM; in the experiment on KM12 colon it was 14.2 µM; in the experiment on UACC-62 melanoma, 15.6 µM; in the experiment with HOP-62 NSCLC it was 19.2 µM. In addition, the TGI in the experiment on OVCAR-4 ovarian is 39.8 µM; in the experiment with ACHN renal it was 31.3 µM; with RPMI-8226 leukemia, 21.4 µM; in the experiment with OVCAR-5 ovarian, 17.5 µM.
